The values that follow come from patent US11673866B2, “Estrogen receptor beta ligands for the prevention and treatment of multiple sclerosis (MS) and other demyelinating, inflammatory and neurodegenerative diseases” (The Board of Trustees of the University of Illinois, priority 2018, dated 2023).

Series [1] can be described thus: Uterus to body weight ratio in EAE mice. Format: in vivo, mouse. The note with it: therapeutic treatment (postEAE), female EAE mice. The text has this: Estrogens increase uterine weight by acting primarily through ERα (Hewitt and Korach, 2003).
The subject of series [2] is primary OPCs/OLs. The series can be described thus: Primary OPC/OL differentiation and survival (O4, MOG, DAPI staining). The class given is cell-based, mouse. The note with it: vs vehicle-treated cells, FIG. 12B. From the text:
FIG. 12A is representative images of primary OPCs/OLs from wells containing differentiating media in the presence of different analogues. OLs were immunostained with an antigen on the surface of oligodendrocyte progenitors, O4, a marker of mature oligodendrocytes, myelin oligodendrocyte glycoprotein, MOG and co-stained with nuclear stain DAPI.
FIG. 12B and FIG. 12C show quantification of the effects of treatment on the number of MOG+ OLs and the number of total cells (DAPI), respectively. […] There were 3 wells/treatment group. n=3 independent experiments were performed. One-Way ANOVA with Dunnett's multiple comparisons test.
The effect on cell differentiation and survival of estrogen receptor § (ERP) ligand IndCl and analogs were investigated. Some estrogen receptor § (ERP) ligands increase primary mouse oligodendrocyte differentiation (FIGS. 12A-12C).

For `Oc1ccc(-n2nc3ccc(O)cc3c2Cl)cc1` [IndCl, chloroindazole], the “uterus to body weight ratio” value in series [1] was “neither IndCl nor its analogues significantly increased this ratio”. Moreover, the “number of MOG+ OLs” value in series [2] is “significant increase”.
